Results from patent US20250368633A1, “AZEPINE FUSED RING COMPOUND AS RIPK1 INHIBITOR AND USE THEREOF” (ARTIVILA BIOPHARMA, priority 2022, published 2025).

Key:
U937 cells = test: Inhibition rate of compound (1 μM) on necroptosis of U937 cells (TSZ-induced, CellTiter-Glo); format: cell-based; conditions: TSZ (hTNF-α, SM-164, Z-VAD-FMK) 20 hours
Summary of the method: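 U937 cells were pretreated 15 min with compound, then necroptosis was triggered with TSZ (Z-VAD-FMK, hTNF-α, SM-164) for 20 h at 37° C. Viability was read as ATP by CellTiter-Glo luminescence, and inhibition (%) was taken relative to no-TSZ and TSZ-only wells.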

RIPK1 kinase = target: T1, RIPK1 kinase (Homo sapiens, UniProt Q13546); test: In vitro RIPK1 kinase activity assay (ADP-Glo), inhibition by compounds at 1 μM; format: biochemical; conditions: compound 1 μM; ATP 10 μM; MBP substrate 100 μg/mL; read-out: RIPK1 kinase activity inhibition rate range
T1 construct: purchased Promega VA7593
T1 sequence (Q13546 1-671): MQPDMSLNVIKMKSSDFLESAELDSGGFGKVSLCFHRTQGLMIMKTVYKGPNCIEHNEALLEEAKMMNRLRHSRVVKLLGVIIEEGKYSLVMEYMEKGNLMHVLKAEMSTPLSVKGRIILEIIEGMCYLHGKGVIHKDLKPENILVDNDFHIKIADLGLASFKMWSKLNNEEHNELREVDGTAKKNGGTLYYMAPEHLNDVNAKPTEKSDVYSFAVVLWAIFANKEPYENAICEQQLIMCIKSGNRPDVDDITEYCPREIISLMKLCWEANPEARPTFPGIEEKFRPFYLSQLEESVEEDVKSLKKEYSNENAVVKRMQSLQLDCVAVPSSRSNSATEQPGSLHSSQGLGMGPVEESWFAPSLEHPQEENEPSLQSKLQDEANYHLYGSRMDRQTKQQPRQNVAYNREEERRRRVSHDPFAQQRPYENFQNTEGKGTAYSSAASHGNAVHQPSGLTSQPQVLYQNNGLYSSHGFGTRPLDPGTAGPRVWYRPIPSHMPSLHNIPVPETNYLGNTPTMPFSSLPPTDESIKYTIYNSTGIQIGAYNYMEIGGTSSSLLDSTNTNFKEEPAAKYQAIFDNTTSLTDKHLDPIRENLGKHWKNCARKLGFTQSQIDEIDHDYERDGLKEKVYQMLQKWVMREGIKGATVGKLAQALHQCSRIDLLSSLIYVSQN
Summary of the method: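 Compound and RIPK1 were preincubated 15 min at room temperature, then reacted 1 h with 10 μM ATP and 100 μg/mL MBP substrate in kinase buffer D. ADP formed was measured by ADP-Glo luminescence and converted to percent inhibition of kinase activity.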

SMILES	inhibition at 1 µM (RIPK1 kinase) [%]	Inhibition rate range of compounds (1 μM) on U937 cell necroptosis (U937 cells)
CN1C(=O)[C@@H](NC(=O)C(=O)NCCc2ccccc2)COc2ccc(C#CCN3CCC(O)CC3)cc21 [Example 81, (S)—N^1-(7-(3-(4-hydroxypiperidin-1-yl)prop-1-yn-1-yl)-5-methyl-4-oxo-2,3,4,5-tetrahydrobenzo[b][1,4]oxazepin-3-yl)-N^2-phenethyloxalamide]	≥ 75	A (A: ≥90%)
CN1C(=O)[C@@H](NC(=O)C(=O)NCCc2ccccc2)COc2ccc(C#CCN3C(=O)CCC3=O)cc21 [Example 84, (S)—N^1-(7-(3-(2,5-dioxopyrrolidin-1-yl)prop-1-yn-1-yl)-5-methyl-4-oxo-2,3,4,5-tetrahydrobenzo[b][1,4]oxazepin-3-yl)-N^2-phenethyloxalamide]	≥ 75	A (A: ≥90%)
CN1C(=O)[C@@H](NC(=O)C(=O)NCCc2ccccc2)COc2ccc(C#CCN3CCNC(=O)C3)cc21 [Example 85, (S)—N^1-(5-methyl-4-oxo-7-(3-(3-oxopiperazin-1-yl)prop-1-yn-1-yl)-2,3,4,5-tetrahydrobenzo[b][1, 4]oxazepin-3-yl)-N^2-phenethyloxalamide]	≥ 75	B (B: 50-89%)
CN1C(=O)[C@@H](NC(=O)C(=O)NCCc2ccccc2)COc2ccc(C#CCNC(=O)OC(C)(C)C)cc21 [Example 86, tert-butyl (S)-(3-(5-methyl-4-oxo-3-(2-oxo-2-(phenethylamino)acetamido)-2,3,4,5-tetrahydrobenzo[b][1,4]oxazepin-7-yl)prop-2-yn-1-yl)carbamate]	50 to 74	A (A: ≥90%)
CN1C(=O)[C@@H](NC(=O)C(=O)NCCc2ccccc2)COc2ccc(C#CCNC(=O)CO)cc21 [Example 88, (S)—N^1-(7-(3-(2-hydroxyacetamido)prop-1-yn-1-yl)-5-methyl-4-oxo-2,3,4,5-tetrahydrobenzo[b][1, 4]oxazepin-3-yl)-N^2-phenethyloxalamide]	≥ 75	A (A: ≥90%)
C=CC(=O)NCC#Cc1ccc2c(c1)N(C)C(=O)[C@@H](NC(=O)C(=O)NCCc1ccccc1)CO2 [Example 89, (S)—N^1-(7-(3-acrylamidoprop-1-yn-1-yl)-5-methyl-4-oxo-2,3,4,5-tetrahydrobenzo[b][1,4]oxazepin-3-yl)-N^2-phenethyloxalamide]	50 to 74	A (A: ≥90%)
CN1C(=O)[C@@H](NC(=O)C(=O)NCCc2ccccc2)COc2ccc(C#CC3CN(C=O)C3)cc21 [Example 91, (S)—N^1-(7-((1-formylazetidin-3-yl)ethynyl)-5-methyl-4-oxo-2,3,4,5-tetrahydrobenzo[b][1,4]oxazepin-3-yl)-N^2-phenethyloxalamide]	≥ 75	A (A: ≥90%)
CN1C(=O)[C@@H](NC(=O)C(=O)NCCc2ccccc2)COc2ccc(C#CC3(O)CN(C=O)C3)cc21 [Example 92, (S)—N^1-(7-((1-formyl-3-hydroxyazetidin-3-yl)ethynyl)-5-methyl-4-oxo-2,3,4,5-tetrahydrobenzo[b][1,4]oxazepin-3-yl)-N^2-phenethyloxalamide]	50 to 74	A (A: ≥90%)
CCOC(=O)CCC#Cc1ccc2c(c1)N(C)C(=O)[C@@H](NC(=O)C(=O)NCCc1ccccc1)CO2 [Example 94, ethyl (S)-5-(5-methyl-4-oxo-3-(2-oxo-2-(phenethylamino)acetamido)-2,3,4,5-tetrahydrobenzo[b][1,4]oxazepin-7-yl) pent-4-ynoate]	≥ 75	B (B: 50-89%)
CN1C(=O)[C@@H](NC(=O)C(=O)NCc2ccccc2)COc2ccc(C#CCn3ccnc3)cc21 [Example 104, (S)—N^1-(7-(3-(1H-imidazol-1-yl)prop-1-yn-1-yl)-5-methyl-4-oxo-2,3,4,5-tetrahydrobenzo[b][1,4]oxazepin-3-yl)-N^2-benzyloxalamide]	≥ 75	A (A: ≥90%)
CN1C(=O)[C@@H](NC(=O)C(=O)NCc2ccccc2)COc2ccc(C#CCN3CCOCC3)cc21 [Example 106, (S)—N^1-benzyl-N^2-(5-methyl-7-(3-morpholinoprop-1-yn-1-yl)-4-oxo-2,3,4,5-tetrahydrobenzo[b][1, 4]oxazepin-3-yl)oxalamide]	≥ 75	B (B: 50-89%)

More lines, main results first:

inhibition at 1 µM (RIPK1 kinase) [%]	SMILES	Inhibition rate range of compounds (1 μM) on U937 cell necroptosis (U937 cells)
50 to 74	CN1C(=O)[C@@H](NC(=O)C(=O)NCc2ccccc2)COc2ccc(C#CCN3CCNC(=O)C3)cc21 [Example 107, (S)—N^1-benzyl-N^2-(5-methyl-4-oxo-7-(3-(3-oxopiperazin-1-yl)prop-1-yn-1-yl)-2,3,4,5-tetrahydrobenzo[b][1,4]oxazepin-3-yl)oxalamide]	A (A: ≥90%)
≥ 75	CN1C(=O)[C@H](NC(=O)C(=O)NCCc2cccc(F)c2)COc2ccc(C#CCCO)cc21 [Example 109, (R)—N^1-(3-fluorophenethyl)-N^2-(7-(4-hydroxybut-1-yn-1-yl)-5-methyl-4-oxo-2,3,4,5-tetrahydrobenzo[b][1,4]oxazepin-3-yl)oxalamide]	A (A: ≥90%)
≥ 75	CN1C(=O)[C@@H](NC(=O)C(=O)NCCc2cccc(F)c2)COc2ccc(C#CC3(O)COC3)cc21 [Example 110, (S)—N^1-(3-fluorophenethyl)-N^2-(7-((3-hydroxyoxetan-3-yl)ethynyl)-5-methyl-4-oxo-2,3,4,5-tetrahydrobenzo[b][1,4]oxazepin-3-yl)oxalamide]	A (A: ≥90%)
≥ 75	CN1C(=O)[C@@H](NC(=O)C(=O)NCCc2cccc(F)c2)COc2ccc(C#CCN3CC[C@@H](O)C3)cc21 [Example 114, N^1-(3-fluorophenethyl)-N^2-((S)-7-(3-((R)-3-hydroxypyrrolidin-1-yl)prop-1-yn-1-yl)-5-methyl-4-oxo-2,3,4,5-tetrahydrobenzo[b][1,4]oxazepin-3-yl)oxalamide]	A (A: ≥90%)
50 to 74	CN1C(=O)[C@@H](NC(=O)C(=O)NCCc2cccc(F)c2)COc2ccc(C#CCN3CC[C@H](O)C3)cc21 [Example 115, N^1-(3-fluorophenethyl)-N^2-((S)-7-(3-((S)-3-hydroxypyrrolidin-1-yl)prop-1-yn-1-yl)-5-methyl-4-oxo-2,3,4,5-tetrahydrobenzo[b][1,4]oxazepin-3-yl)oxalamide]	A (A: ≥90%)
50 to 74	CN1C(=O)[C@@H](NC(=O)C(=O)NCCc2cccc(F)c2)COc2ccc(C#Cc3cccnc3)cc21 [Example 117, (S)—N^1-(3-fluorophenethyl)-N^2-(5-methyl-4-oxo-7-(pyridin-3-ylethynyl)-2,3,4,5-tetrahydrobenzo[b][1,4]oxazepin-3-yl)oxalamide]	A (A: ≥90%)
≥ 75	CN1C(=O)[C@@H](NC(=O)C(=O)NCCc2cccc(F)c2)COc2ccc(C#CCN3CCC(=O)CC3)cc21 [Example 118, (S)—N^1-(3-fluorophenethyl)-N^2-(5-methyl-4-oxo-7-(3-(4-oxopiperidin-1-yl)prop-1-yn-1-yl)-2,3,4,5-tetrahydrobenzo[b][1,4]oxazepin-3-yl)oxalamide]	A (A: ≥90%)
≥ 75	CN1C(=O)[C@@H](NC(=O)C(=O)NCCc2cccc(F)c2)COc2ccc(C#CCN3CCOCC3)cc21 [Example 120, (S)—N^1-(3-fluorophenethyl)-N^2-(5-methyl-7-(3-morpholinoprop-1-yn-1-yl)-4-oxo-2,3,4,5-tetrahydrobenzo[b][1,4]oxazepin-3-yl)oxalamide]	A (A: ≥90%)
≥ 75	CN1C(=O)[C@@H](NC(=O)C(=O)NCCc2cccc(F)c2)COc2ccc(C#CCN3C(=O)CCC3=O)cc21 [Example 122, (S)—N^1-(7-(3-(2,5-dioxopyrrolidin-1-yl)prop-1-yn-1-yl)-5-methyl-4-oxo-2,3,4,5-tetrahydrobenzo[b][1,4]oxazepin-3-yl)-N^2-(3-fluorophenethyl)oxalamide]	A (A: ≥90%)
